Experimental data published in patent publication US10487093B2, “Heterocyclic compounds, in particular 2-oxo-4,4,5,5,6,6,7,7-octahydrobenzoxazole derivatives, and their use as antibacterial compounds” (priority 2016, dated 2019).
Converted amounts (≈) assume the structure as drawn.

Tests used:
[1] = test system: human hepatic cell line (HepG2 ATCC HB-8065); assay: Human cell viability assay (CellTiter-Glo); conditions: Homo sapiens, HepG2, 24 h, read-out: IC50 (μg/mL) HepG2
[2] = test system: Haemophilus influenzae ATCC 49247; assay: MIC, broth microdilution (CLSI) versus planktonic bacteria; type: cell-based; conditions: ATCC49247; Haemophilus influenzae ATCC 49247; 16-20 h; mode of three independent experiments; read-out: MIC, Hi ATCC 49247
[3] = test system: Acinetobacter baumannii NCTC 13420; assay: as above; type: cell-based; conditions: NCTC13420; Acinetobacter baumannii NCTC 13420; 16-20 h; mode of three independent experiments; read-out: MIC, Ab NCTC 13420
[4] = test system: Streptococcus pneumoniae ATCC 49619; assay: as above; type: cell-based; conditions: ATCC49619; Streptococcus pneumoniae ATCC 49619; 16-20 h; mode of three independent experiments; read-out: MIC, Sp ATCC 49619
[5] = test system: Staphylococcus aureus ATCC 29213; assay: as above; type: cell-based; conditions: ATCC29213; Staphylococcus aureus ATCC 29213; 16-20 h; mode of three independent experiments; read-out: MIC, Sa ATCC 29213
[6] = test system: Escherichia coli ATCC 25922; assay: as above; type: cell-based; conditions: ATCC25922; Escherichia coli ATCC 25922; 16-20 h; mode of three independent experiments; read-out: MIC, Ec ATCC 25922
[7] = test system: Enterobacter cloacae NCTC 13406; assay: as above; type: cell-based; conditions: NCTC13406; Enterobacter cloacae NCTC 13406; 16-20 h; mode of three independent experiments; read-out: MIC, Ecl NCTC 13406
[8] = test system: Pseudomonas aeruginosa ATCC 27853; assay: as above; type: cell-based; conditions: ATCC27853; Pseudomonas aeruginosa ATCC 27853; 16-20 h; mode of three independent experiments; read-out: MIC, Pa ATCC 27853

| Compound | IC50 [1] | MIC [2] | MIC [3] | MIC [4] | MIC [5] | MIC [6] | MIC [7] | MIC [8] |
| --- | --- | --- | --- | --- | --- | --- | --- | --- |
| COc1ccc2ccc(=O)n(CCN[C@H]3CC[C@H]4[C@@H](C3)OC(=O)N4c3ncc4c(n3)NC(=O)CO4)c2n1 [Compound 16] | > 100 µg/mL | < 1 µg/mL | 1 to 10 µg/mL (≈ 1.97 to 19.7 µM) | < 1 µg/mL | < 1 µg/mL | < 1 µg/mL | 1 to 10 µg/mL (≈ 1.97 to 19.7 µM) | 1 to 10 µg/mL (≈ 1.97 to 19.7 µM) |
| COc1ncc2ccc(=O)n(CCN[C@H]3CC[C@H]4[C@@H](C3)OC(=O)N4c3ccc4c(n3)NC(=O)CO4)c2n1 [Compound 17, (3aS,6S,7aR)-6-[(2-{2-methoxy-7-oxo-7H,8H-pyrido[2,3-d]pyrimidin-8-yl}ethyl)amino]-3-{3-oxo-2H,3H,4H-pyrido[3,2-b][1,4]oxazin-6-yl}-octahydro-1,3-benzoxazol-2-one] | 10 to 100 µg/mL (≈ 19.7 to 197 µM) | 10 to 100 µg/mL (≈ 19.7 to 197 µM) | 10 to 100 µg/mL (≈ 19.7 to 197 µM) | 10 to 100 µg/mL (≈ 19.7 to 197 µM) | 1 to 10 µg/mL (≈ 1.97 to 19.7 µM) | 1 to 10 µg/mL (≈ 1.97 to 19.7 µM) | 10 to 100 µg/mL (≈ 19.7 to 197 µM) | 10 to 100 µg/mL (≈ 19.7 to 197 µM) |
| N#Cc1ccc2ccc(=O)n(CCN(CCN)[C@@H]3CC[C@@H]4[C@@H](C3)OC(=O)N4c3ccc4c(n3)NC(=O)CO4)c2c1 [Compound 19, 1-(2-{[(3aR,6R,7aR)-2-oxo-3-{3-oxo-2H,3H,4H-pyrido[3,2-b][1,4]oxazin-6-yl}-octahydro-1,3-benzoxazol-6-yl](2-aminoethyl)amino}ethyl)-2-oxo-1,2-dihydroquinoline-7-carbonitrile] | > 100 µg/mL | 10 to 100 µg/mL (≈ 18.4 to 184 µM) | 10 to 100 µg/mL (≈ 18.4 to 184 µM) | > 100 µg/mL | < 1 µg/mL | 10 to 100 µg/mL (≈ 18.4 to 184 µM) | > 100 µg/mL | 10 to 100 µg/mL (≈ 18.4 to 184 µM) |
| O=C1COc2ccc(N3C(=O)O[C@@H]4C[C@H](NCCn5c(=O)ccc6ccc(O)cc65)CC[C@H]43)nc2N1 [Compound 20, 1-(2-{[(3aR,6R,7aR)-2-oxo-3-{3-oxo-2H,3H,4H-pyrido[3,2-b][1,4]oxazin-6-yl}-octahydro-1,3-benzoxazol-6-yl]amino}ethyl)-7-hydroxy-1,2-dihydroquinolin-2-one] | > 100 µg/mL | < 1 µg/mL | 10 to 100 µg/mL (≈ 20.3 to 203 µM) | 10 to 100 µg/mL (≈ 20.3 to 203 µM) | < 1 µg/mL | < 1 µg/mL | 1 to 10 µg/mL (≈ 2.03 to 20.3 µM) | 1 to 10 µg/mL (≈ 2.03 to 20.3 µM) |
| COc1ccc2ccc(=O)n(CCN[C@@H]3CC[C@@H]4[C@H](C3)OC(=O)N4c3ccc4c(n3)NC(=O)CO4)c2n1 [Compound 25, 1-(2-{[(3aR,6R,7aS)-2-oxo-3-{3-oxo-2H,3H,4H-pyrido[3,2-b][1,4]oxazin-6-yl}-octahydro-1,3-benzoxazol-6-yl]amino}ethyl)-7-methoxy-1,2-dihydro-1,8-naphthyridin-2-one] | 10 to 100 µg/mL (≈ 19.7 to 197 µM) | < 1 µg/mL | < 1 µg/mL | < 1 µg/mL | < 1 µg/mL | < 1 µg/mL | < 1 µg/mL | 1 to 10 µg/mL (≈ 1.97 to 19.7 µM) |
| O=C1COc2ccc(N3C(=O)O[C@@H]4C[C@@H](NCCn5c(=O)cnc6ccc(F)cc65)CC[C@@H]43)nc2N1 [Compound 26, 1-(2-{[(3aS,6S,7aR)-2-oxo-3-{3-oxo-2H,3H,4H-pyrido[3,2-b][1,4]oxazin-6-yl}-octahydro-1,3-benzoxazol-6-yl]amino}ethyl)-7-fluoro-1,2-dihydroquinoxalin-2-one] | > 100 µg/mL | < 1 µg/mL | < 1 µg/mL | < 1 µg/mL | < 1 µg/mL | < 1 µg/mL | 1 to 10 µg/mL (≈ 2.02 to 20.2 µM) | 1 to 10 µg/mL (≈ 2.02 to 20.2 µM) |
| O=C1COc2ccc(N3C(=O)O[C@@H]4C[C@@H](NCCn5c(=O)ccc6ncc(F)cc65)CC[C@@H]43)nc2N1 [Compound 28, 1-(2-{[(3aS,6S,7aR)-2-oxo-3-{3-oxo-2H,3H,4H-pyrido[3,2-b][1,4]oxazin-6-yl}-octahydro-1,3-benzoxazol-6-yl]amino}ethyl)-7-fluoro-1,2-dihydro-1,5-naphthyridin-2-one] | > 100 µg/mL | 1 to 10 µg/mL (≈ 2.02 to 20.2 µM) | 1 to 10 µg/mL (≈ 2.02 to 20.2 µM) | < 1 µg/mL | < 1 µg/mL | < 1 µg/mL | 1 to 10 µg/mL (≈ 2.02 to 20.2 µM) | 1 to 10 µg/mL (≈ 2.02 to 20.2 µM) |
| CN(C)CCOc1ccc2ccc(=O)n(CCN[C@@H]3CC[C@@H]4[C@@H](C3)OC(=O)N4c3ccc4c(n3)NC(=O)CO4)c2c1 [Compound 32, 1-(2-{[(3aR,6R,7aR)-2-oxo-3-{3-oxo-2H,3H,4H-pyrido[3,2-b][1,4]oxazin-6-yl}-octahydro-1,3-benzoxazol-6-yl]amino}ethyl)-7-[2-(dimethylamino)ethoxy]-1,2-dihydroquinolin-2-one] | > 100 µg/mL | 10 to 100 µg/mL (≈ 17.8 to 178 µM) | > 100 µg/mL | 1 to 10 µg/mL (≈ 1.78 to 17.8 µM) | 1 to 10 µg/mL (≈ 1.78 to 17.8 µM) | 1 to 10 µg/mL (≈ 1.78 to 17.8 µM) | 10 to 100 µg/mL (≈ 17.8 to 178 µM) | 1 to 10 µg/mL (≈ 1.78 to 17.8 µM) |
| COc1ncc2ccc(=O)n(CCN[C@@H]3CC[C@@H]4[C@@H](C3)OC(=O)N4c3ncc4c(n3)NC(=O)CO4)c2n1 [Compound 33, (3aR,6R,7aR)-6-[(2-{2-methoxy-7-oxo-7H,8H-pyrido[2,3-d]pyrimidin-8-yl}ethyl)amino]-3-{7-oxo-6H,7H,8H-pyrimido[5,4-b][1,4]oxazin-2-yl}-octahydro-1,3-benzoxazol-2-one] | – | 1 to 10 µg/mL (≈ 1.97 to 19.7 µM) | 10 to 100 µg/mL (≈ 19.7 to 197 µM) | < 1 µg/mL | < 1 µg/mL | < 1 µg/mL | 1 to 10 µg/mL (≈ 1.97 to 19.7 µM) | 10 to 100 µg/mL (≈ 19.7 to 197 µM) |
| COc1cnc2ccc(=O)n(CCN[C@@H]3CC[C@@H]4[C@@H](C3)OC(=O)N4c3ncc4c(n3)NC(=O)CO4)c2c1 [Compound 41, 1-(2-{[(3aR,6R,7aR)-2-oxo-3-{7-oxo-6H,7H,8H-pyrimido[5,4-b][1,4]oxazin-2-yl}-octahydro-1,3-benzoxazol-6-yl]amino}ethyl)-7-methoxy-1,2-dihydro-1,5-naphthyridin-2-one] | – | – | 10 to 100 µg/mL (≈ 19.7 to 197 µM) | < 1 µg/mL | < 1 µg/mL | < 1 µg/mL | 1 to 10 µg/mL (≈ 1.97 to 19.7 µM) | 1 to 10 µg/mL (≈ 1.97 to 19.7 µM) |
| COc1ncc2ccc(=O)n(CCN[C@H]3CC[C@H]4[C@H](C3)OC(=O)N4c3ccc4c(n3)NC(=O)CO4)c2n1 [Compound 52, (3aS,6S,7aS)-6-[(2-{2-methoxy-7-oxo-7H,8H-pyrido[2,3-d]pyrimidin-8-yl}ethyl)amino]-3-{3-oxo-2H,3H,4H-pyrido[3,2-b][1,4]oxazin-6-yl}-octahydro-1,3-benzoxazol-2-one] | – | < 1 µg/mL | 1 to 10 µg/mL (≈ 1.97 to 19.7 µM) | < 1 µg/mL | < 1 µg/mL | < 1 µg/mL | 1 to 10 µg/mL (≈ 1.97 to 19.7 µM) | 10 to 100 µg/mL (≈ 19.7 to 197 µM) |
| COc1cccc(-c2cccc(CN[C@H]3CC[C@H]4[C@H](C3)OC(=O)N4c3ccc4c(n3)NC(=O)CO4)c2)n1 [Compound 73, (3aS,6S,7aS)-6-({[3-(6-methoxypyridin-2-yl)phenyl]methyl}amino)-3-{3-oxo-2H,3H,4H-pyrido[3,2-b][1,4]oxazin-6-yl}-octahydro-1,3-benzoxazol-2-one] | – | 1 to 10 µg/mL (≈ 1.99 to 19.9 µM) | 1 to 10 µg/mL (≈ 1.99 to 19.9 µM) | 1 to 10 µg/mL (≈ 1.99 to 19.9 µM) | < 1 µg/mL | < 1 µg/mL | 1 to 10 µg/mL (≈ 1.99 to 19.9 µM) | 10 to 100 µg/mL (≈ 19.9 to 199 µM) |
| COc1cnc2ccc(=O)n(CCCN[C@H]3CC[C@H]4[C@H](C3)OC(=O)N4c3ccc4c(n3)NC(=O)CS4)c2c1 [Compound 96, 1-(3-{[(3aS,6S,7aS)-2-oxo-3-{3-oxo-2H,3H,4H-pyrido[3,2-b][1,4]thiazin-6-yl}-octahydro-1,3-benzoxazol-6-yl]amino}propyl)-7-methoxy-1,2-dihydro-1,5-naphthyridin-2-one] | – | < 1 µg/mL | < 1 µg/mL | – | < 1 µg/mL | – | < 1 µg/mL | 1 to 10 µg/mL (≈ 1.86 to 18.6 µM) |
| O=C1COc2ccc(N3C(=O)O[C@H]4C[C@@H](NCCn5c(=O)ccc6ccc(OCCN7CCOCC7)cc65)CC[C@@H]43)nc2N1 [Compound 97, 1-(2-{[(3aS,6S,7aS)-2-oxo-3-{3-oxo-2H,3H,4H-pyrido[3,2-b][1,4]oxazin-6-yl}-octahydro-1,3-benzoxazol-6-yl]amino}ethyl)-7-[2-(morpholin-4-yl)ethoxy]-1,2-dihydroquinolin-2-one] | – | 1 to 10 µg/mL (≈ 1.65 to 16.5 µM) | 1 to 10 µg/mL (≈ 1.65 to 16.5 µM) | 1 to 10 µg/mL (≈ 1.65 to 16.5 µM) | < 1 µg/mL | 1 to 10 µg/mL (≈ 1.65 to 16.5 µM) | 10 to 100 µg/mL (≈ 16.5 to 165 µM) | 10 to 100 µg/mL (≈ 16.5 to 165 µM) |
| O=C1COc2ccc(N3C(=O)O[C@H]4C[C@@H](NCCn5c(=O)ccc6ccc(OC7CNC7)cc65)CC[C@@H]43)nc2N1 [Compound 103, 1-(2-{[(3aS,6S,7aS)-2-oxo-3-{3-oxo-2H,3H,4H-pyrido[3,2-b][1,4]oxazin-6-yl}-octahydro-1,3-benzoxazol-6-yl]amino}ethyl)-7-(azetidin-3-yloxy)-1,2-dihydroquinolin-2-one] | – | – | 10 to 100 µg/mL (≈ 18.3 to 183 µM) | 1 to 10 µg/mL (≈ 1.83 to 18.3 µM) | – | 1 to 10 µg/mL (≈ 1.83 to 18.3 µM) | – | 1 to 10 µg/mL (≈ 1.83 to 18.3 µM) |
| N#Cc1ccc2c(ccc(=O)n2CCN[C@H]2CC[C@H]3[C@H](C2)OC(=O)N3c2ccc3c(n2)NC(=O)CO3)c1 [Compound 107, 1-(2-{[(3aS,6S,7aS)-2-oxo-3-{3-oxo-2H,3H,4H-pyrido[3,2-b][1,4]oxazin-6-yl}-octahydro-1,3-benzoxazol-6-yl]amino}ethyl)-2-oxo-1,2-dihydroquinoline-6-carbonitrile] | – | 1 to 10 µg/mL (≈ 2 to 20 µM) | 1 to 10 µg/mL (≈ 2 to 20 µM) | 1 to 10 µg/mL (≈ 2 to 20 µM) | 1 to 10 µg/mL (≈ 2 to 20 µM) | 1 to 10 µg/mL (≈ 2 to 20 µM) | 10 to 100 µg/mL (≈ 20 to 200 µM) | > 100 µg/mL |
